Experiment: xn = mol fraction of the nth substance listed
Details: Liquid, Vibrating tube method

CCCCCCCCCC [decane] + CCCCCCC
Details	mass density [kg/m3]
333.12 K, 4000 kPa, x2 = 0.0531	701.18
333.12 K, 4000 kPa, x2 = 0.777	668.42
333.12 K, 5000 kPa, x2 = 0.0531	702.16
333.12 K, 5000 kPa, x2 = 0.777	669.49
333.12 K, 6000 kPa, x2 = 0.0531	703.1
333.12 K, 6000 kPa, x2 = 0.777	670.55
333.12 K, 7000 kPa, x2 = 0.0531	704.05
333.12 K, 7000 kPa, x2 = 0.777	671.62
333.12 K, 8000 kPa, x2 = 0.0531	704.99
333.12 K, 8000 kPa, x2 = 0.777	672.68
333.12 K, 9000 kPa, x2 = 0.0531	705.9
333.12 K, 9000 kPa, x2 = 0.777	673.73
333.12 K, 10000 kPa, x2 = 0.0531	706.8
333.12 K, 10000 kPa, x2 = 0.777	674.77
333.12 K, 10990 kPa, x2 = 0.0531	707.69
333.12 K, 10990 kPa, x2 = 0.777	675.8
333.12 K, 12000 kPa, x2 = 0.0531	708.56
333.12 K, 12000 kPa, x2 = 0.777	676.81
333.12 K, 13000 kPa, x2 = 0.0531	709.43
333.12 K, 13000 kPa, x2 = 0.777	677.81
333.12 K, 14000 kPa, x2 = 0.0531	710.28
333.12 K, 14000 kPa, x2 = 0.777	678.79
333.12 K, 15000 kPa, x2 = 0.0531	711.14
333.12 K, 15000 kPa, x2 = 0.777	679.76
333.12 K, 16000 kPa, x2 = 0.0531	711.96
333.12 K, 16000 kPa, x2 = 0.777	680.71
333.12 K, 17000 kPa, x2 = 0.0531	712.79
333.12 K, 17000 kPa, x2 = 0.777	681.65
333.12 K, 18000 kPa, x2 = 0.0531	713.6
333.12 K, 18000 kPa, x2 = 0.777	682.58
333.12 K, 19000 kPa, x2 = 0.0531	714.39
333.12 K, 19000 kPa, x2 = 0.777	683.49
333.12 K, 20000 kPa, x2 = 0.0531	715.18
333.12 K, 20000 kPa, x2 = 0.777	684.39
333.12 K, 21000 kPa, x2 = 0.0531	715.96
333.12 K, 21000 kPa, x2 = 0.777	685.27
333.12 K, 22000 kPa, x2 = 0.0531	716.72
333.12 K, 22000 kPa, x2 = 0.777	686.1
333.12 K, 23000 kPa, x2 = 0.0531	717.46
333.12 K, 23000 kPa, x2 = 0.777	686.9
333.12 K, 24000 kPa, x2 = 0.0531	718.21
333.12 K, 24000 kPa, x2 = 0.777	687.68
333.12 K, 25000 kPa, x2 = 0.0531	718.95
333.12 K, 25000 kPa, x2 = 0.777	688.47
333.13 K, 1000 kPa, x2 = 0.952	653.95
333.13 K, 2000 kPa, x2 = 0.952	655.14
333.13 K, 3000 kPa, x2 = 0.952	656.33
333.13 K, 4000 kPa, x2 = 0.952	657.51
333.13 K, 5000 kPa, x2 = 0.952	658.67
333.13 K, 6000 kPa, x2 = 0.952	659.82
333.13 K, 7000 kPa, x2 = 0.952	660.95
333.13 K, 8000 kPa, x2 = 0.952	662.06
333.13 K, 9000 kPa, x2 = 0.952	663.16
333.13 K, 10000 kPa, x2 = 0.952	664.24
333.13 K, 10990 kPa, x2 = 0.952	665.3
333.13 K, 12000 kPa, x2 = 0.952	666.34
333.13 K, 13000 kPa, x2 = 0.952	667.37
333.13 K, 14000 kPa, x2 = 0.952	668.38
333.13 K, 15000 kPa, x2 = 0.952	669.39
333.13 K, 16000 kPa, x2 = 0.952	670.37
333.13 K, 17000 kPa, x2 = 0.952	671.33
333.13 K, 18000 kPa, x2 = 0.952	672.29
333.13 K, 19000 kPa, x2 = 0.952	673.23
333.13 K, 20000 kPa, x2 = 0.952	674.14
333.13 K, 21000 kPa, x2 = 0.952	675.04
333.13 K, 22000 kPa, x2 = 0.952	675.93
333.13 K, 23000 kPa, x2 = 0.952	676.79
333.13 K, 24000 kPa, x2 = 0.952	677.64
333.13 K, 25000 kPa, x2 = 0.952	678.45
333.14 K, 1000 kPa, x2 = 0.2594	690.74
333.14 K, 2000 kPa, x2 = 0.2594	691.66
333.14 K, 3000 kPa, x2 = 0.2594	692.62
333.14 K, 4000 kPa, x2 = 0.2594	693.57
333.14 K, 5000 kPa, x2 = 0.2594	694.49
333.14 K, 6000 kPa, x2 = 0.2594	695.43
333.14 K, 7000 kPa, x2 = 0.2594	696.4
333.14 K, 8000 kPa, x2 = 0.2594	697.34
333.14 K, 9000 kPa, x2 = 0.2594	698.3
333.14 K, 10000 kPa, x2 = 0.2594	699.23
333.14 K, 10990 kPa, x2 = 0.2594	700.16
333.14 K, 12000 kPa, x2 = 0.2594	701.08
333.14 K, 13000 kPa, x2 = 0.2594	701.98
333.14 K, 14000 kPa, x2 = 0.2594	702.87
333.14 K, 15000 kPa, x2 = 0.2594	703.75
333.14 K, 16000 kPa, x2 = 0.2594	704.61
333.14 K, 17000 kPa, x2 = 0.2594	705.47
333.14 K, 18000 kPa, x2 = 0.2594	706.33
333.14 K, 19000 kPa, x2 = 0.2594	707.13
333.14 K, 20000 kPa, x2 = 0.2594	707.94
333.14 K, 21000 kPa, x2 = 0.2594	708.75
333.14 K, 22000 kPa, x2 = 0.2594	709.53
333.14 K, 23000 kPa, x2 = 0.2594	710.3
333.14 K, 24000 kPa, x2 = 0.2594	711.03
333.14 K, 25000 kPa, x2 = 0.2594	711.74

From the NIST ThermoML archive (doi:10.1016/j.jct.2011.08.016)
